Data as given in patent US9115102B2, “N-[2-hydroxycarbamoyl-2-(piperazinyl) ethyl] benzamide compounds, their preparation and their use as TACE inhibitors” (GALDERMA RESEARCH & DEVELOPMENT, priority 2009, dated 2015).

Assays:
TACE enzyme = TACE enzyme (Homo sapiens, UniProt P78536); experiment: Enzymatic test of TACE inhibition (fluorescent substrate); format: biochemical
MMP1 = MMP1 (Homo sapiens (Human), UniProt P03956); experiment: Selectivity test, MMP1; format: biochemical
MMP9 = MMP9 (Homo sapiens (Human), UniProt P14780); experiment: Selectivity test, MMP9; format: biochemical
MMP3 = MMP3 (Homo sapiens (Human), UniProt P08254); experiment: Selectivity test, MMP3; format: biochemical
ADAM9 = ADAM9 (Homo sapiens (Human), UniProt Q13443); experiment: biochemical
ADAM10 = ADAM10 (Homo sapiens (Human), UniProt O14672); experiment: Selectivity test, ADAM10; format: biochemical
[1] = enzymatic test, substrate 40 μM

Sequence of MMP3 (P08254 100-477): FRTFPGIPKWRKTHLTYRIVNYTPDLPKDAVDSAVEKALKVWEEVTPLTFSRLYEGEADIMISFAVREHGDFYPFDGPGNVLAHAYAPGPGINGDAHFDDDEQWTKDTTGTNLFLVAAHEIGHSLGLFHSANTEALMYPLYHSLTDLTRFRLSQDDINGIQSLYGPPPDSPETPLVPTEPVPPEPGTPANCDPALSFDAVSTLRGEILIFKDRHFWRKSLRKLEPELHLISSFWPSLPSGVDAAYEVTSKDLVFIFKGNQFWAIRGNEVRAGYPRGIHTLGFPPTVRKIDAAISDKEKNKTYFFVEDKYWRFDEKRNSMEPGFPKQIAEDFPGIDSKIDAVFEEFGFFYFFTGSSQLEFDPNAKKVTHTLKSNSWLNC
Sequence of TACE enzyme (P78536 215-824 limits assumed): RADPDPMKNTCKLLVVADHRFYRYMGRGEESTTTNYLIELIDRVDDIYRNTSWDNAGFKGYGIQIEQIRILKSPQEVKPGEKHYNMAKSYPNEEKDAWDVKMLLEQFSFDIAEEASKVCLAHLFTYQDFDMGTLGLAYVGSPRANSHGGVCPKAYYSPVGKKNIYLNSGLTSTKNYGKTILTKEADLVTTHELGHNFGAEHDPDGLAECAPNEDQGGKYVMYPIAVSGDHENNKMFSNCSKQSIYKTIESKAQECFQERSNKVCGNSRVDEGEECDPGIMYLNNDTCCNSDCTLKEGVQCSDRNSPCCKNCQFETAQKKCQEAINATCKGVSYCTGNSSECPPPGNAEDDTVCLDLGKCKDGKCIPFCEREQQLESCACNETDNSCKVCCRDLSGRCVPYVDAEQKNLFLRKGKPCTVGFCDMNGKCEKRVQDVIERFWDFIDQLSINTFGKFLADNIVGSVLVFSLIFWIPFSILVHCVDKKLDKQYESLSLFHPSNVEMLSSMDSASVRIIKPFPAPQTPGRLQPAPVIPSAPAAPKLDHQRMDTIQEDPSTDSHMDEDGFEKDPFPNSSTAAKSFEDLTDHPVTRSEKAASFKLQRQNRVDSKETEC
Sequence of MMP1 (P03956 100-469): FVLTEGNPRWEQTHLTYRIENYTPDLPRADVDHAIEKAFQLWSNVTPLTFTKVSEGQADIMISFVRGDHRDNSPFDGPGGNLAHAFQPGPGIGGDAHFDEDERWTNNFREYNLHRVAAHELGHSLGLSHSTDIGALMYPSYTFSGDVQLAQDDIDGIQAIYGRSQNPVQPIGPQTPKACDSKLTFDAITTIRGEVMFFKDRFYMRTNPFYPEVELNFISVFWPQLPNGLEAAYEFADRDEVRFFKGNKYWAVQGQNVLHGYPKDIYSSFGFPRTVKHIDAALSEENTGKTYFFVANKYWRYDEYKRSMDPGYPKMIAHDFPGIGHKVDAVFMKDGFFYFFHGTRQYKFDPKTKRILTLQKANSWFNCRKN
Sequence of ADAM10 (O14672 214-748): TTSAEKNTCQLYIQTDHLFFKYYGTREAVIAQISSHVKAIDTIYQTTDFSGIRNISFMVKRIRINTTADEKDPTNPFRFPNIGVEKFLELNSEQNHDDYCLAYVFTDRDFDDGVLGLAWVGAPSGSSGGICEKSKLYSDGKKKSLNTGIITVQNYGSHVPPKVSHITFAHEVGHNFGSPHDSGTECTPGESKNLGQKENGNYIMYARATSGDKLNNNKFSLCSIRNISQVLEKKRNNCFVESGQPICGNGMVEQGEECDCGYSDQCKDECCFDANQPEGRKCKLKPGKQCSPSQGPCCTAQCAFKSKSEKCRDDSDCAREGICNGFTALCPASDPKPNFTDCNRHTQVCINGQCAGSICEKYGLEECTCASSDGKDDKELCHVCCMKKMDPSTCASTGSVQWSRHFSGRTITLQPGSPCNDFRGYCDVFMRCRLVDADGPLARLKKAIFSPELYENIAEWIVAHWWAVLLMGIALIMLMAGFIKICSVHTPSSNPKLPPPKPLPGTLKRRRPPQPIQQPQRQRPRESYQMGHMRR
Sequence of MMP9 (P14780 94-707): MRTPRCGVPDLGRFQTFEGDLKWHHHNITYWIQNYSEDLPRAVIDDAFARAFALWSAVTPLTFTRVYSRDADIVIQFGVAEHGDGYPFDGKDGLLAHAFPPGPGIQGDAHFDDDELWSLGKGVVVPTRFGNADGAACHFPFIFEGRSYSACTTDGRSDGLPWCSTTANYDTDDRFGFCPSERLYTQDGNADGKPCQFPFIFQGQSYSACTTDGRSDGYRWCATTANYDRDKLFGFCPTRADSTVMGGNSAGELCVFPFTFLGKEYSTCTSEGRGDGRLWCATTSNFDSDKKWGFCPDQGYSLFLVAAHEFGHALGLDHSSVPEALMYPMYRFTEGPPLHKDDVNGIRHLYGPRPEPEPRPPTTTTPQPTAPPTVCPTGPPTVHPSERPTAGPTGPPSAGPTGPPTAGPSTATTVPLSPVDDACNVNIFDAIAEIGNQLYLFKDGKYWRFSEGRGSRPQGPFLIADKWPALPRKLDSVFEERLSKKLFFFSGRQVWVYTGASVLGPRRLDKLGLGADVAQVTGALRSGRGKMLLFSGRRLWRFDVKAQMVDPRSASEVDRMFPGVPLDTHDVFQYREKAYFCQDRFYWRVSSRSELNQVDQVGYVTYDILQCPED
Sequence of ADAM9 (Q13443 29-819): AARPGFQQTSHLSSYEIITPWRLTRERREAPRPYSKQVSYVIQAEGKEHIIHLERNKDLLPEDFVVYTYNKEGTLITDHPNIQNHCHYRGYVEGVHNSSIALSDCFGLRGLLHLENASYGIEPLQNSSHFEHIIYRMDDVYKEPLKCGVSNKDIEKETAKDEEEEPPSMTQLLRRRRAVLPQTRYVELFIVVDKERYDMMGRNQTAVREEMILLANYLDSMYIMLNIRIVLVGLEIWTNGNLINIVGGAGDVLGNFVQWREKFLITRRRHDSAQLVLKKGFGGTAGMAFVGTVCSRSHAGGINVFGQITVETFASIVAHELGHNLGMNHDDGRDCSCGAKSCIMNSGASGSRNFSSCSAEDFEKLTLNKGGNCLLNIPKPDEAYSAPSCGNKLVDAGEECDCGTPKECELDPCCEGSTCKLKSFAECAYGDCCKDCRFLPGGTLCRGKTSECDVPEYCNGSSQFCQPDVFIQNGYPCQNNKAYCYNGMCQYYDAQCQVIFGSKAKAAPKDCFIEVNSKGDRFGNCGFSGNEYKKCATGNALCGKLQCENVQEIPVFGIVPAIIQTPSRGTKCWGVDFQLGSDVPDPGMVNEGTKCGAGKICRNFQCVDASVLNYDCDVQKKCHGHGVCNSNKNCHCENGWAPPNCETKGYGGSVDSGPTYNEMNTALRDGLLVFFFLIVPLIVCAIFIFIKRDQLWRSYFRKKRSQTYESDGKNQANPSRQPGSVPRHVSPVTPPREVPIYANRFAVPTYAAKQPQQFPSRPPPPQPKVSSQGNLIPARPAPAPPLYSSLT

SMILES	% TACE inhibition at 10 μM (TACE enzyme)	IC50 (TACE enzyme; [1])	also measured
COc1ccc(COc2ccc(C(=O)NC[C@@H](C(=O)NO)N3CCN(S(C)(=O)=O)CC3)cc2)cc1 [Example 17, N—[(S)-2-Hydroxycarbamoyl-2-(4-methane-sulphonylpiperazin-1-yl)ethyl]-4-(4-methoxybenzyloxy)-benzamide]	98%	70 nM	–
COc1ccc(C(=O)NC[C@@H](C(=O)NO)N2CCN(S(C)(=O)=O)CC2)cc1 [Example 4, N—[(S)-2-hydroxycarbamoyl-2-(4-methane-sulphonylpiperazin-1-yl)ethyl]-4-methoxybenzamide]	100%	160 nM	–
CS(=O)(=O)N1CCN([C@@H](CNC(=O)c2ccc(OCc3ccccc3)cc2)C(=O)NO)CC1 [Example 6, 4-benzyloxy-N—[(S)-2-hydroxycarbamoyl-2-(4-methanesulphonylpiperazin-1-yl)ethyl]benzamide]	100%	40 nM	–
Cc1cc(COc2ccc(C(=O)NC[C@@H](C(=O)NO)N3CCN(S(=O)(=O)C(C)C)CC3)cc2)c2ccccc2n1 [Example 23, N-{(S)-2-Hydroxycarbamoyl-2-[4-(propane-2-sulphonyl)piperazin-1-yl]ethyl}-4-(2-methylquinolin-4-ylmethoxy)benzamide]	97%	102 nM	–
CC#CCOc1ccc(C(=O)NC[C@@H](C(=O)NO)N2CCN(S(C)(=O)=O)CC2)cc1 [Example 2, 4-But-2-ynyloxy-N—[(S)-2-hydroxycarbamoyl-2-(4-methanesulphonylpiperazin-1-yl)ethyl]benzamide]	100%	28 nM	IC50 (MMP1): > 10000 nM; IC50 (MMP9): > 10000 nM; IC50 (TACE enzyme; selectivity table): 28 nM; IC50 (MMP3): 6310 nM
O=C(NCC(C(=O)NO)N1CCN(Cc2ccccc2)CC1)c1ccc(OCc2c(C(F)(F)F)nn3ccccc23)cc1 (stereo not drawn) [Example 27, N-[2-(4-Benzylpiperazin-1-yl)-2-hydroxycarbamoylethyl]-4-(2-trifluoromethylpyrazolo[1,5-a]pyridin-3-ylmethoxy)benzamide]	95%	–	IC50 (ADAM9): > 10000 nM; IC50 (MMP1): > 10000 nM; IC50 (MMP9): > 10000 nM; IC50 (ADAM10): > 10000 nM; IC50 (MMP3): > 10000 nM
CS(=O)(=O)N1CCN([C@@H](CNC(=O)c2ccc(OCC#CCO)cc2)C(=O)NO)CC1 [Example 16, 4-(4-Hydroxybut-2-ynyloxy)-N—[(S)-2-hydroxycarbamoyl-2-(4-methanesulphonylpiperazin-1-yl)-ethyl]benzamide]	97%	35 nM	–
CC#CCOc1ccc(C(=O)NC[C@@H](C(=O)NO)N2CCN(S(=O)(=O)c3ccc(C)cc3)CC2)cc1 [Example 8, 4-but-2-ynyloxy-N-{(S)-2-hydroxycarbamoyl-2-[4-(toluene-4-sulphonyl)piperazin-1-yl]ethyl}benzamide]	100%	54 nM	–
CC#CCOc1ccc(C(=O)N(C)C[C@@H](C(=O)NO)N2CCN(S(C)(=O)=O)CC2)cc1 [Example 13, 4-But-2-ynyloxy-N—[(S)-2-hydroxycarbamoyl-2-(4-methanesulphonylpiperazin-1-yl)ethyl]-N-methylbenzamide]	98%	22 nM	–
CS(=O)(=O)N1CCN([C@@H](CNC(=O)c2ccc(OCc3ccc(F)cc3)cc2)C(=O)NO)CC1 [Example 9, 4-(4-fluorobenzyloxy)-N—[(S)-2-hydroxycarbamoyl-2-(4-methanesulphonylpiperazin-1-yl)ethyl]benzamide]	98%	21 nM	–
CS(=O)(=O)N1CCN([C@@H](CNC(=O)c2ccc(OCc3ccc(C(F)(F)F)cc3)cc2)C(=O)NO)CC1 [Example 10, N—[(S)-2-hydroxycarbamoyl-2-(4-methane-sulphonylpiperazin-1-yl)ethyl]-4-(4-trifluoromethyl-benzyloxy)benzamide]	97%	117 nM	–
Cc1cc(COc2ccc(C(=O)NC[C@@H](C(=O)NO)N3CCN(S(C)(=O)=O)CC3)cc2)c2ccccc2n1 [Example 14, N—[(S)-2-Hydroxycarbamoyl-2-(4-methane-sulphonylpiperazin-1-yl)ethyl]-4-(2-methylquinolin-4-ylmethoxy)benzamide]	98%	–	IC50 (MMP1): 2610 nM; IC50 (ADAM10): 5790 nM; IC50 (MMP3): 6830 nM
Cc1cc(COc2ccc(C(=O)NC[C@@H](C(=O)NO)N3CCN(Cc4ccccc4)CC3)cc2)c2ccccc2n1 [Example 22, N—[(S)-2-(4-Benzylpiperazin-1-yl)-2-hydroxycarbamoylethyl]-4-(2-methylquinolin-4-yl-methoxy)benzamide]	97%	79 nM	–
CS(=O)(=O)N1CCN([C@@H](CNC(=O)c2ccc(OCc3ccncc3)cc2)C(=O)NO)CC1 [Example 18, N—[(S)-2-Hydroxycarbamoyl-2-(4-methane-sulphonylpiperazin-1-yl)ethyl]-4-(pyridin-4-ylmethoxy)-benzamide]	98%	99 nM	–
CC#CCOc1ccc(C(=O)NCC(C(=O)NO)N2CCN(S(C)(=O)=O)CC2)cc1 (stereo not drawn) [Example 1, 4-But-2-ynyloxy-N-[2-hydroxycarbamoyl-2-(4-methanesulphonylpiperazin-1-yl)ethyl]benzamide]	100%	32 nM	–
CS(=O)(=O)N1CCN([C@@H](CNC(=O)c2ccc(OCC3CC3)cc2)C(=O)NO)CC1 [Example 5, 4-cyclopropylmethoxy-N—[(S)-2-hydroxycarbamoyl-2-(4-methanesulphonylpiperazin-1-yl)ethyl]benzamide]	100%	200 nM	–
Cc1ccc(COc2ccc(C(=O)NC[C@@H](C(=O)NO)N3CCN(S(C)(=O)=O)CC3)cc2)cc1 [Example 11, N—[(S)-2-hydroxycarbamoyl-2-(4-methane-sulphonylpiperazin-1-yl)ethyl]-4-(4-methylbenzyloxy)-benzamide]	96%	95 nM	–
CS(=O)(=O)N1CCN([C@@H](CNC(=O)c2ccc(OCc3ccnc4ccccc34)cc2)C(=O)NO)CC1 [Example 21, N—[(S)-2-hydroxycarbamoyl-2-(4-methane-sulphonylpiperazin-1-yl)ethyl]-4-(quinolin-4-ylmethoxy)benzamide]	96%	118 nM	–
Cc1ccc2ccccc2c1COc1ccc(C(=O)NC[C@@H](C(=O)NO)N2CCN(S(C)(=O)=O)CC2)cc1 [Example 19, N—[(S)-2-Hydroxycarbamoyl-2-(4-methane-sulphonylpiperazin-1-yl)ethyl]-4-(2-methylnaphthalen-1-ylmethoxy)benzamide]	90%	138 nM	–
Cc1cc(COc2ccc(C(=O)NC[C@@H](C(=O)NO)N3CCN(S(C)(=O)=O)CC3)cc2)c2ccccc2n1.Cl.Cl [Example 24, N—[(S)-2-Hydroxycarbamoyl-2-(4-methane-sulphonylpiperazin-1-yl)ethyl]-4-(2-methylquinolin-4-ylmethoxy)benzamide dihydrochloride]	98%	–	–
CCN1CCN([C@@H](CNC(=O)c2ccc(OCc3cc(C)nc4ccccc34)cc2)C(=O)NO)CC1 [Example 25, N—[(S)-2-(4-Ethylpiperazin-1-yl)-2-hydroxycarbamoylethyl]-4-(2-methylquinolin-4-ylmethoxy)-benzamide]	90%	45 nM	–
